Assay results reported in patent US20140005163A1 (NOVARTIS AG, priority 2010, published 2014).

Columns and labels:
[1] = molecular target: T1, PI3K delta (Homo sapiens, UniProt O00329); experiment: PI3K delta kinase assay (Kinase-Glo luminescence); format: biochemical
T1 construct: for the full-length p110-d subunit are generated and fused by overlapping PCR; p85(iSH2) fusion partner (see partner chain) (N); His tag (C); made in house; host or cells: baculovirus; Tn5 (Trichoplusia ni) or TiniPro insect cells
T1 sequence (O00329 with tags, fused parts or gaps limits assumed): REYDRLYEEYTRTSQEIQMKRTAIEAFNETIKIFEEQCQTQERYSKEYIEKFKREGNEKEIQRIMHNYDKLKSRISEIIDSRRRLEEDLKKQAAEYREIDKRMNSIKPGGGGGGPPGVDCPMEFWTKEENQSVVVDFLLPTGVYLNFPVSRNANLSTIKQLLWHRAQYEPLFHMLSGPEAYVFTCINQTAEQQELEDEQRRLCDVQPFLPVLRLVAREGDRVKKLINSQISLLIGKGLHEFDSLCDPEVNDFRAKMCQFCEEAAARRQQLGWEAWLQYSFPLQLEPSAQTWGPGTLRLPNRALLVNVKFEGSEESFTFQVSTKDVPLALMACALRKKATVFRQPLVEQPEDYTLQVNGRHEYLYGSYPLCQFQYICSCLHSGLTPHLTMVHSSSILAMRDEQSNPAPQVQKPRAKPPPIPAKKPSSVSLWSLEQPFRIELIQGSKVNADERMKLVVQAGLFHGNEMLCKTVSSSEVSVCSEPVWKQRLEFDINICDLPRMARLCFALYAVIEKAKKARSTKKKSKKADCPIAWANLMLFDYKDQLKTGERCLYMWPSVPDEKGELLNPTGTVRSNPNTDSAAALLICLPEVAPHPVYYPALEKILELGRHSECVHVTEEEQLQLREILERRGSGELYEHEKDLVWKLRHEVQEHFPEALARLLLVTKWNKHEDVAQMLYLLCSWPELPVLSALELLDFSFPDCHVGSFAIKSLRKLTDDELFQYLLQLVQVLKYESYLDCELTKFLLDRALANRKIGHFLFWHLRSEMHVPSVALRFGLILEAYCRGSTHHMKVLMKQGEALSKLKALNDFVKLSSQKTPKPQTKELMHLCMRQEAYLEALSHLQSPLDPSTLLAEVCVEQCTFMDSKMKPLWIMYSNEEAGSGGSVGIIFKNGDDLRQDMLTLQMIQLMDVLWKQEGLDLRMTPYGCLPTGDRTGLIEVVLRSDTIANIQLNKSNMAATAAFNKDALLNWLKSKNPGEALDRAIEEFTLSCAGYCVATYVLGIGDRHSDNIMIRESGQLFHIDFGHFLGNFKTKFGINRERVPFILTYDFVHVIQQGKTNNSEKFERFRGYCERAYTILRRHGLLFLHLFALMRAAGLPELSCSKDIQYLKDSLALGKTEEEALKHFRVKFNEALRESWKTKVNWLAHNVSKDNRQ
In short: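 Lipid kinase activity of a His-tagged p110δ full-length/p85 iSH2 fusion (10 nM) toward bovine liver phosphatidylinositol (10 μg/mL) at 1 μM ATP, pH 7.5, 60 min, room temperature. ATP consumption is quantified by luciferase-based luminescence. Four-parameter logistic fitting gives IC50.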

[2] = molecular target: T2, PI3K gamma (Homo sapiens, UniProt P48736); experiment: PI3K gamma kinase assay (Kinase-Glo luminescence); format: biochemical
T2 construct: His tag (C); made in house; host or cells: baculovirus (pVL1393); Tn5 or TiniPro insect cells; construct from Roger Williams lab, MRC LMB
T2 sequence (P48736 144-1102 limits assumed): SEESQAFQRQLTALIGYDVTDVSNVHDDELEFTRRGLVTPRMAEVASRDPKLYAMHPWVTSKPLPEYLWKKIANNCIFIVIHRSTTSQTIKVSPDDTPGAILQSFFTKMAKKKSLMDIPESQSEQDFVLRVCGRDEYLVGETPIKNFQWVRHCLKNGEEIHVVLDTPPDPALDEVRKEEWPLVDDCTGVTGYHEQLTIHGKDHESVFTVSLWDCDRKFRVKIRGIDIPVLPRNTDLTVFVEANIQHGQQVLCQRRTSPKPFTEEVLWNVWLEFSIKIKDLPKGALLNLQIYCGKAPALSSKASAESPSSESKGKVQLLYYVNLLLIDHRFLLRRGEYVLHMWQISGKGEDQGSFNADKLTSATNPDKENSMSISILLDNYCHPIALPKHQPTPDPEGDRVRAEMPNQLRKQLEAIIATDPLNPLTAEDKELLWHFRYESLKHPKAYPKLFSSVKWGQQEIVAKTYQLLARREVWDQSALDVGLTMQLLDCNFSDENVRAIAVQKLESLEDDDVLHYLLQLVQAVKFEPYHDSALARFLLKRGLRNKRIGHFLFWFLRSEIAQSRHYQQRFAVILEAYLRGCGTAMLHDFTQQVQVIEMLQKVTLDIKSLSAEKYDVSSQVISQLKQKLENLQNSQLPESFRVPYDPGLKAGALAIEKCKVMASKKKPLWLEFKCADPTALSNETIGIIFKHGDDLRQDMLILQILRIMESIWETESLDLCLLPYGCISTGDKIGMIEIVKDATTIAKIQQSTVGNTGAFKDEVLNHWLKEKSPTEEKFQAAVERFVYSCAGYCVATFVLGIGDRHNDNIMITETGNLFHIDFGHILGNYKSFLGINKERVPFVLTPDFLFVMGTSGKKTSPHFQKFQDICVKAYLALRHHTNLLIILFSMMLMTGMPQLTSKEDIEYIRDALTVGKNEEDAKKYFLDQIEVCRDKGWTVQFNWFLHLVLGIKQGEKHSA
In short: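 PI3Kγ (150 nM) reaction run 120 min at room temperature with phosphatidylinositol substrate (10 μg/mL) and ATP (1 μM) in Tris pH 7.5 buffer containing MgCl2, NaCl, CHAPS and DTT. Remaining ATP detected by Kinase-Glo luminescence; 8 concentrations per compound, IC50 from 4-parameter curve fitting.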

[3] = test system: PKB Ser473 phosphorylation in Rat1-myr-HA-p110 alpha cells; experiment: Reverse protein array assay, PKB Ser473 phosphorylation in Rat1-myr-p110 alpha cells; format: cell-based; details: 0.5 h, pAkt Ser473, 30 minutes compound incubation, read-out: p-PKB IC50
In short: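 Rat1 cells expressing myristoylated HA-tagged p110 alpha, beta or delta were plated for at least 20 h, then exposed to 8-step serial compound dilutions (0.2% DMSO final) for 30 min at 37 °C. Lysates were spotted at four dilutions on protein microarrays, and relative fluorescence intensity of phospho-Ser473 PKB was calculated.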

SMILES	IC50 [1] [nM]	IC50 [2] [nM]	IC50 [3] [nM]
COc1ccc(-c2ccc3ncc4c(c3c2)n(-c2cn(C(C)C)nc2C)c(=O)n4C)cc1OC [Example 1.5, 8-(3,4-Dimethoxy-phenyl)-1-(1-isopropyl-3-methyl-1H-pyrazol-4-yl)-3-methyl-1,3-dihydro-imidazo[4,5-c]quinolin-2-one]	7	132	16
Cc1cc(-n2c(=O)n(C)c3cnc4ccc(-c5ccc(N(C)C)nc5)cc4c32)n(C)n1 [Example 4.6, 8-(6-Dimethylamino-pyridin-3-yl)-1-(2,5-dimethyl-2H-pyrazol-3-yl)-3-methyl-1,3-dihydro-imidazo[4,5-c]quinolin-2-one]	91	481	30
Cc1nn(C)cc1-n1c(=O)n(C)c2cnc3ccc(-c4ccc(N5CCC5)nc4)cc3c21 [Example 5.1, 8-(6-Azetidin-1-yl-pyridin-3-yl)-1-(1,3-dimethyl-1H-pyrazol-4-yl)-3-methyl-1,3-dihydro-imidazo[4,5-c]quinolin-2-one]	144	309	7
Cc1nn(C)cc1-n1c(=O)n(C)c2cnc3ccc(-c4ccc(C(N)=O)nc4)cc3c21 [Example 14, 5-[1-(1,3-Dimethyl-1H-pyrazol-4-yl)-3-methyl-2-oxo-2,3-dihydro-1H-imidazo[4,5-c]quinolin-8-yl]-pyridine-2-carboxylic acid amide]	34	212	26
CNC(=O)c1ccc(-c2ccc3ncc4c(c3c2)n(-c2c(C)nn(C)c2C)c(=O)n4C)cn1 [Example 15.2, 5-[3-Methyl-2-oxo-1-(1,3,5-trimethyl-1H-pyrazo1-4-yl)-2,3-dihydro-1H-imidazo[4,5-c]quinolin-8-yl]-pyridine-2-carboxylic acid methylamide]	821	548	352
CO[C@@H]1CCN(c2ccc(-c3ccc4ncc5c(c4c3)n(-c3cn(C)nc3C)c(=O)n5C)cn2)C1 [Example 213.1, 1-(1,3-Dimethyl-1H-pyrazol-4-yl)-8-[6-((R)-3-methoxy-pyrrolidin-1-yl)-pyridin-3-yl]-3-methyl-1,3-dihydro-imidazo[4,5-c]quinolin-2-one]	691		125
Cn1cc(-n2c(=O)n(C)c3cnc4ccc(-c5cncc(C(C)(C)C#N)c5)cc4c32)c(Cl)n1 [Example 220.3, 2-{5-[1-(3-Chloro-1-methyl-1H-pyrazol-4-yl)-3-methyl-2-oxo-2,3-dihydro-1H-imidazo[4,5-c]quinolin-8-yl]-pyridin-3-yl}-2-methyl-propionitrile]	3		6
Cc1nn(C)cc1-n1c(=O)n(C)c2cnc3ccc(-c4cncc(C5(C#N)CCC5)c4)cc3c21 [Example 221.1, 1-{5-[1-(1,3-Dimethyl-1H-pyrazol-4-yl)-3-methyl-2-oxo-2,3-dihydro-1H-imidazo[4,5-c]quinolin-8-yl]-pyridin-3-yl}-cyclobutanecarbonitrile]	6		14
CCN1C(=O)OCc2ncc(-c3ccc4ncc5c(c4c3)n(-c3cn(C)nc3C)c(=O)n5C)cc21 [Example 237, 1-(1,3-Dimethyl-1H-pyrazol-4-yl)-8-(1-ethyl-2-oxo-1,4-dihydro-2H-pyrido[3,2-d][1,3]oxazin-7-yl)-3-methyl-1,3-dihydro-imidazo[4,5-c]quinolin-2-one]	9		18
CCn1c(=O)n(-c2cn(C)nc2C)c2c3cc(-c4cncc(N)c4)ccc3ncc21 [Example 245, 8-(5-Amino-pyridin-3-yl)-1-(1,3-dimethyl-1H-pyrazol-4-yl)-3-ethyl-1,3-dihydro-imidazo[4,5-c]quinolin-2-one]	30		730
Cc1nn(CC(=O)N2CCC2)cc1-n1c(=O)n(C)c2cnc3ccc(-c4cnc(N5CCCC5)nc4)cc3c21 [Example 247.2, 1-[1-(2-Azetidin-1-yl-2-oxo-ethyl)-3-methyl-1H-pyrazol-4-yl]-3-methyl-8-(2-pyrrolidin-1-yl-pyrimidin-5-yl)-1,3-dihydro-imidazo[4,5-c]quinolin-2-one]	794		45
